From ChEMBL document CHEMBL4311946, “Mechanistic Insight on the Mode of Action of Colletoic Acid” (J Med Chem, 2019) come the findings set out here.

pIC50: −log10 of the molar value. Activity calls are given as the source filed them. The calls are words filed in the database; no cut-off is given here. Where only a bound is given, the exact number is not on record here.

The test system of assay [1] is 3T3-L1. As to the kind of experiment: Anti-adipogenic activity in mouse 3T3L1 preadipocytes assessed as decrease in lipid accumulation at 10 uM incubated for 48 hrs under induction medium containing dehydrocorticosterone/cortisone followed by shifting to differentiation medium and measured after 7 days by Oil red O staining-based microscopic analysis. The class given is functional, cell-based.

In assay [2] the test system is 3T3-L1. As to the kind of experiment: Anti-adipogenic activity in differentiated mouse 3T3L1 cells assessed as reduction in FABP4 mRNA expression at 50 to 100 uM measured after 2 to 7 days by SYBR green dye-based qRT-PCR analysis relative to control. The class given is functional. Background: In qPCR the cycle at which signal appears reflects the starting amount.
The test system of assay [3] is 3T3-L1. As to the kind of experiment: Anti-adipogenic activity in differentiated mouse 3T3L1 cells assessed as reduction in 11beta-HSD1 mRNA expression at 50 to 100 uM measured after 2 to 7 days by SYBR green dye-based qRT-PCR analysis. The class given is functional, cell-based.
Assay [4] has as its target 11-beta-hydroxysteroid dehydrogenase 1 (Homo sapiens, UniProt P28845). As to the kind of experiment: Inhibition of 11beta-HSD1 in human microsomes using [3H] cortisone as substrate by scintillation proximity assay. Background: In a scintillation proximity assay essentially only radioactivity close to the scintillant gives light.

Sequence of 11-beta-hydroxysteroid dehydrogenase 1 (P28845 whole entry): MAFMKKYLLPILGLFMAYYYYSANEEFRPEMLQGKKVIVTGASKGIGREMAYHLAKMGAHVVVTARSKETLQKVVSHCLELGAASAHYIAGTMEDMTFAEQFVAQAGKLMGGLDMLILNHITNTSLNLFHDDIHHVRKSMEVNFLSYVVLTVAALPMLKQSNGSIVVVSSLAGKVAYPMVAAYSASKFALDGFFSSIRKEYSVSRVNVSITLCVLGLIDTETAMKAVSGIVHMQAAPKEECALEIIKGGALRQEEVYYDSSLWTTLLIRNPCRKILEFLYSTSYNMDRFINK

`CC1=CC[C@@]2(C[C@@H]1O)[C@@H](C(=O)O)CC[C@H]2C(C)C`: the outcome with 3T3-L1 [1] and in the assay on 3T3-L1 [3] was Active. In the assay on 3T3-L1 [2], the “fold change (FC)” value is on record as below 10. Also, the negative-log IC50 (pIC50) (commonly the IC50 on a negative log10 scale, so that one unit is a factor of ten) in assay [4] is 7.89.
